Data set [1] deals with human whole blood aggregation. In words: Inhibition by Compound A of human whole blood aggregation (Impedance method). It counts as cell-based. As to the method:
(§1) Blood was taken from median cubital vein or cephalic vein of normal men aged of 29 to 40, who had taken no anti-inflammatory drug at least for the last 10 days before testing, into a syringe containing 0.1 volume of 40 U/ml heparin aqueous solution (a product of Green Cross Corp., Japan).
(§2) Compound A was dissolved in a saline, and the solution obtained was used in the experiment.
(§3) As an aggregation inducing agent, an aqueous solution prepared by dissolving epinephrine or a platelet activating factor (hereinafter, PAF) in 25 mM Tris HCl-130 mM NaCl aqueous solution (pH 7.4) was used in the experiment.
(§4) 5 μl of saline solution of Compound A prepared in 1-4 was added to 1 ml of the whole blood, neutrophil suspension or PRP and an electrode was dipped thereinto. The mixture obtained was incubated for 2 minutes under the conditions that the temperature in cell was 37° C. and the stirring rate was 1000 r.p.m., and then 20 μl of aggregation inducing agent was added to the mixture. 4 minutes later, the variation in impedance (Δ.OMEGA.) was determined using Chrono-log aggregometer (540 type, a product of Chrono-log Co., Ltd). The intensity of the variation gave the aggregation activity. In determining the aggregation of neutrophils, 5 μg/ml of cytochalasin B was added to the incubated mixture, one minute prior to the addition of PAF solution. As a control, saline was used instead of saline solution of Compound A and the aggregation was determined as described above.

For another data set, the system named is human neutrophils. In words: Inhibition by Compound A of PAF-induced adhesion-aggregation of human neutrophils (Impedance method). It counts as cell-based. Conditions: Neutrophil, 10 μM Compound A, 0.02 μM, read-out: Inhibition ratio. As to the method:
as §1
10 ml of the blood obtained above was mixed with 3 ml of a 4.5% dextran aqueous solution, and the mixture was allowed to stand for 1 hour at room temperature. The supernatant was taken and centrifuged at 250 X g for 7 minutes. The precipitate was taken, and 3 ml of 0.2% sodium chloride aqueous solution was added thereto to lyse the red blood cells. The mixture was allowed to stand for 75 seconds and 7 ml of a 1.2% sodium chloride aqueous solution was added thereto. […] It was confirmed that the surviving ratio of nuetrophil in the resulting suspension was over 95% as determined by the trypan blue staining method. […]
5 μl of saline solution of Compound A prepared in 1-4 was added to 1 ml of the whole blood, neutrophil suspension or PRP and an electrode was dipped thereinto. […] 4 minutes later, the variation in impedance (Δ.OMEGA.) was determined using Chrono-log aggregometer (540 type, a product of Chrono-log Co., Ltd). […] As a control, saline was used instead of saline solution of Compound A and the aggregation was determined as described above.

Data set [2] relates to human neutrophil aggregation. In words: Inhibition by Compound A of PAF-induced human neutrophil aggregation (Optical method). It counts as cell-based. As to the method: as §1
10 ml of the blood obtained above was mixed with 3 ml of a 4.5% dextran aqueous solution, and the mixture was allowed to stand for 1 hour at room temperature. The supernatant was taken and centrifuged at 250 X g for 7 minutes. The precipitate was taken, and 3 ml of 0.2% sodium chloride aqueous solution was added thereto to lyse the red blood cells. The mixture was allowed to stand for 75 seconds and 7 ml of a 1.2% sodium chloride aqueous solution was added thereto. The mixture was centrifuged at 250 X g for 7 minutes to obtain the precipitate which contained mainly neutrophils. When the red blood cell was not sufficiently removed, the above procedure for lysis of red blood cell was repeated. The precipitate was washed with 10 ml of a phosphate buffer solution containing 0.5% glucose (hereinafter, PBSG), and the mixture was centrifuged at 250 X g for 7 minutes to take the precipitate. The above washing procedure was repeated twice, and the precipitate obtained was added to PBSG or PBSG containing 0.5% human serum albumin to obtain the neutrophil suspension. It was confirmed that the surviving ratio of nuetrophil in the resulting suspension was over 95% as determined by the trypan blue staining method. A blood cell counter (a product of Nihon Koden Co., Ltd) was used to count the number of neutrophils. The mixture was preserved at 4° C. before use. […]
5 μl of saline solution of Compound A prepared in 1-4) was added to 1 ml of neutrophil suspension and the mixture was incubated for 2 minutes under the conditions that the temperature in cell was 37° C. and the stirring rate was 1,000 r.p.m. […] The aggregation was determined optically using the Chrono-log aggregometer. As a control, saline was used instead of saline solution of Compound A and the aggregation was determined as described above.

Data set [3] deals with human platelet aggregation. In words: Inhibition by Compound A of PAF-induced human platelet aggregation. It counts as cell-based. As to the method:
as §1
The blood obtained in (1) was centrifuged at 190 X g for 7 minutes. The supernatant was taken to obtain the platelets rich plasma (hereinafter, PRP). Platelet counter (a product of Toa Co., Ltd) was used to count the number of platelets.
as §2, §3, §4

A short description of data set [4]: Acute toxicity (LD50) in rats, oral. The note with it: rat, in vivo, administered orally.
Another data set concerns diabetic retinopathy. In words: Clinical trial in patients having diabetic retinopathy, funduscopic observation. In kind it is in vivo, human. Also on record: key to Funduscopic observation: microaneurysms / Funduscopic observation: dot hemorrhage: +: observed; ±: slightly observed; -: not observed. The note with it: 300 to 900 mg daily orally; for Funduscopic observation: microaneurysms / Funduscopic observation: dot hemorrhage: + + at start. As to the method:
Compound A was administered orally at dose of 300 to 900 mg daily to patients having diabetic retinopathy for a period of a month to about 2 years. Microaneurysms, dot hemorrhage, retina edema, hard exudate, arterialization and maculopathy in Fundus oculi, which were indications for retinopathy, were investigated using a funduscope.

In a further data set the test system is blood glucose level. Conditions: as disclosed in U.S. Pat. No. 4,138,491; cited from earlier work.
The next data set has as its system platelet aggregation. The note with it: as disclosed in U.S. Pat. No. 4,138,491; cited from earlier work.
The next data set concerns retinal vesseles. Conditions: injected into retinal artery of rabbit; cited from earlier work.
The mark [5] stands for this setting: patient B, left eye, 116 weeks after administration.
Setting [6] is: patient B, right eye, 116 weeks after administration.

Values joined by “and” are separate entries in the source; they are usually repeats but may differ in a detail not shown here. Equal values may be shown once. Read-outs that look alike come from different tables or passages of the source.

`c1ccc(C(CC2=NCCN2)c2ccccn2)cc1` (stereo not drawn) [Compound A, 2-(2-phenyl-2-(2-pyridyl))ethyl-2-imidazoline]: the IC50 (in general, the concentration needed to halve the response being measured) in data set [1] (Homo sapiens, in vitro, Epinephrine (2 μM), individual values of n = 3, read-out: IC50) is 5.6 µM; in data set [1] (Homo sapiens, in vitro, Epinephrine (2 μM), n = 3, read-out: IC50, average ± s.d.), 5.2 ± 0.7 µM; in data set [1] (Homo sapiens, induced by PAF (0.02 μM), n=3, read-out: IC50, average), 2.8 µM; in [1] (Homo sapiens, induced by epinephrine (2 μM), n=3, read-out: IC50), ~5 µM; in data set [1] (in vitro, Epinephrine (2 μM), individual values of n = 3, read-out: IC50), 4.2 µM and 5.8 µM; in data set [1] (in vitro, PAF (0.02 μM), individual values of n = 3, read-out: IC50), 1.8 µM and 4.6 µM. Besides, the inhibition at 10 µM in the data set with human neutrophils is 59%; in [2] (Homo sapiens, Neutrophil, 10 μM Compound A, PAF, 2 μM, optical method, read-out: inhibition ratio), 83%; in [3] (Homo sapiens, Platelet, 10 μM Compound A, PAF, 2 μM, read-out: Inhibition ratio), 0%. Moreover, the inhibition at 5 µM in [2] (Homo sapiens, Neutrophil, 5 μM Compound A, PAF, 2 μM, optical method, read-out: inhibition ratio) was 68%. Further, the “PAF-induced human neutrophil aggregation” value in data set [2] (at low concentration) is reported as “inhibited the PAF-induced human neutrophil aggregation at low concentration”. For the same compound, the inhibition at 50 µM in [3] (Homo sapiens, Platelet, 50 μM Compound A, PAF, 2 μM, read-out: Inhibition ratio) was 45%. Moreover, the inhibition at 100 µM in data set [3] (Homo sapiens, Platelet, 100 μM Compound A, PAF, 2 μM, read-out: Inhibition ratio) came to 82%. In addition, the “PAF-induced human platelet aggregation” value in [3] (low versus high concentration) was “did not inhibit PAF-induced human platelet aggregation at a low concentration but did at a high concentration”. In addition, the LD50 – broadly, the dose expected to kill half of the subjects tested – in data set [4] came out at 867 mg/kg. Besides, in the data set with diabetic retinopathy (3 patients), the “microaneurysms and dot hemorrhage” value was “disappearance or reduction of microaneurysms and dot hemorrhage were observed”. Further, the “Funduscopic observation: microaneurysms” value in the data set on diabetic retinopathy (patient A, left eye, 58 weeks after administration) was “-”; in the data set with diabetic retinopathy (patient A, right eye, 58 weeks after administration), “-”; with diabetic retinopathy (setting [5]), “-”; in the data set on diabetic retinopathy (setting [6]), “-”. The “Funduscopic observation: dot hemorrhage” value is reported as “-” in the data set with diabetic retinopathy (setting [5]); “-” with diabetic retinopathy (setting [6]); “±” with diabetic retinopathy (patient C, left eye, 109 weeks after administration); “±” in the data set with diabetic retinopathy (patient C, right eye, 109 weeks after administration). The “blood glucose level” value with blood glucose level is given as “reduces the blood glucose level”. The “platelet aggregation” value with platelet aggregation is on record as “inhibits platelet aggregation”.

With `CCCCCCCCCCCCCCCCOCC(COP(=O)([O-])OCC[N+](C)(C)C)OC(C)=O` (stereo not drawn) [PAF], the “state of retinal vessels” value in the data set with retinal vesseles is “a sludge-like state is observed in retinal vesseles”.

The values are drawn from patent US4746668A, “Method for treating retinopathy” (Daiichi Seiyaku Co., Ltd., priority 1986, dated 1988).
